Data on 25 compounds can be found in US20100120798A1, “SUBSTITUTED PIPERIDINES CONTAINING A HETEROARYLAMIDE OR HETEROARYLPHENYL MOIETY” (ASTEX THERAPEUTICS LIMITED, priority 2006, published 2010).

SMILES strings stand for the structures.

As usually defined, the IC50 is the midpoint of a concentration-inhibition curve.

The assay can be described thus: In vitro MDA-MB-468 human breast adenocarcinoma GSK-3 phosphorylation assay. The assay is classed as cell-based. Particulars: mean IC50, MDA-MB-468 cells, 2 hours with compound, phospho-GSK-3β. An excerpt: This assay determines the ability of test compounds to inhibit phosphorylation of Serine-9 residue in Glycogen Synthase Kinase-3beta (GSK-3β) as a surrogate marker of cellular PKB (Akt) activity, as assessed using Acumen Explorer Fluorescent Plate-Reader technology. A MDA-MB-468 human breast adenocarcinoma cell line (LGC Promochem, Teddington, Middlesex, UK, Catalogue No. HTB-132) was routinely maintained in Dulbecco's modified Eagle's growth medium (DMEM; Invitrogen Limited, Paisley, UK Catalogue No. 11966-025) containing 10% heat-inactivated foetal calf serum (FCS; Sigma, Poole, Dorset, UK, Catalogue No. F0392) and 1% L-glutamine (Gibco, Catalogue No. 25030-024) at 37° C. with 5% CO2 up to a confluency of 70-90%.
For the phosphorylation assay, the cells were detached from the culture flask using Trypsin-EDTA (Invitrogen Limited, Catalogue No. 25300-062) and seeded into the wells of a black transparent-bottom Corning Costar Polystyrene 96 well plate (Fisher Scientific UK, Loughborough, Leicestershire, UK; Catalogue No. 3904 and DPS-130-020K) at a density of 5000 cells per well in 100 μl of complete growth media. The cells were incubated overnight at 37° C. with 5% CO2 to allow them to adhere.
On day 2, the cells were treated with test compounds and incubated for 2 hours at 37° C. with 5% CO2. Test compounds were prepared as 10 mM stock solutions in DMSO and dosed directly to required concentration into test wells using non-contact (acoustic dispensing of multiple 2.5 nl droplets directly into assay wells) ECHO dosing technology (Labcyte Inc. Sunnyvale, Calif., USA). Each plate contained control wells without test compound.
20 μl of fixing buffer (Phosphate Buffered Saline (PBS) containing 10% formaldehyde; Sigma; Catalogue No. F1635) was then added to each well to give a final well concentration 1.6%. Plates were then incubated for 30 minutes at room temperature prior to the fixative being removed. Each well was washed once with 250 μl of PBS and then 50 μl PBS added to each well. PBS was then aspirated and cells permeabilised and blocked by incubating each well with 50 μl of permeabilisation/blocking buffer (PBS containing 0.5% Tween 20 (Sigma; Catalogue No. P5927) and 5% Marvel Milk Powder (Andrews Pharmacy Ltd, Macclesfield, Cheshire, UK; Catalogue No. APC100199)) for 1 hour at room temperature prior to staining.
Following removal of Perm/Block buffer, 50 μl of primary anti-phospho-GSK-3β antibody (Cell Signalling Technology (New England Biolabs (Uk) Ltd.), Hitchin, Hertfordshire, UK; Catalogue No. 9336 diluted 1:400 in Blocking buffer (PBS containing 5% Marvel and 0.05% Tween/Polysorbate 20) was added to each well and incubated overnight at 4° C.
Each well was washed three times in 250 μl of wash buffer (PBS containing 0.05% polysorbate 20), and cells incubated for 1 hour at room temperature with 50 μl of secondary fluorescently-labelled anti-rabbit Alexa Fluor 488 antibody (Molecular Probes, Invitrogen Limited, Catalogue No. A11008) diluted 1:750 in blocking buffer. Plates were washed three times in 250 μl of wash buffer and stored containing 50 μl of PBS at 4° C. until required.
Plates were analysed using an Acumen Explorer Plate-reader to quantify level of fluorescent signal that represents quantity of phosphorylated-GSK-3β.
IC50 calculation—IC50 is the concentration of compound required to give 50% effect over the range of activity affected by the compound, between maximum (no compound) and minimum (excess level of compound) response control data. IC50 values were determined by fitting background corrected, dose response assay data to a 4 parameter logistic curve fit equation model with the minimum response set to zero. This was done using an in-house developed algorithm within the Origin graphing software package (OriginLab Corporation, Northampton, Mass., USA). […]
With `Cn1cc(-c2cccc(C3(CN)CCN(c4ncnc5[nH]ccc45)CC3)c2)cn1` [Example 51, (4-(3-(1-Methyl-1H-pyrazol-4-yl)phenyl)-1-(7H-pyrrolo[2,3-d]pyrimidin-4-yl)piperidin-4-yl)methanamine], the IC50 is less than 17 nM.
For the compound `NC1(C(=O)NCc2cc(Br)no2)CCN(c2ncnc3[nH]ccc23)CC1` [Example 48, 4-Amino-1-(7H-pyrrolo[2,3-d]pyrimidin-4-yl)-piperidine-4-carboxylic acid (3-bromo-isoxazol-5-ylmethyl)-amide], the IC50 amounted to 380 nM.
As for `NCC1(C(=O)NCc2ccc(Br)s2)CCN(c2ncnc3[nH]ccc23)CC1` [Example 21, 4-(aminomethyl)-N-((5-bromothiophen-2-yl)methyl)-1-(7H-pyrrolo[2,3-d]pyrimidin-4-yl)piperidine-4-carboxamide], the IC50 was less than 5.9 nM.
To `Cn1cc(CNC(=O)C2(N)CCN(c3ncnc4[nH]ccc34)CC2)cn1` [Example 45, 4-amino-N-[(1-methylpyrazol-4-yl)methyl]-1-(7H-pyrrolo[2,3-d]pyrimidin-4-yl)piperidine-4-carboxamide] belongs more than 19000 nM; to `Cc1sccc1-c1cccc(C2(CN)CCN(c3ncnc4[nH]cnc34)CC2)c1` [Example 7, C-[4-[3-(2-Methyl-thiophen-3-yl)-phenyl]-1-(9H-purin-6-yl)-piperidin-4-yl]-methylamine], less than 8 nM; to `NC1(C(=O)Nc2cccc(-c3nc4ccccc4o3)c2)CCN(c2ncnc3[nH]ccc23)CC1` [Example 52, 4-Amino-1-(7H-pyrrolo[2,3-d]pyrimidin-4-yl)-piperidine-4-carboxylic acid (3-benzooxazol-2-yl-phenyl)-amide], 5100 nM.
With `NCC1(c2cccc(-c3cncnc3)c2)CCN(c2ncnc3[nH]ccc23)CC1` [Example 77, [4-(3-pyrimidin-5-ylphenyl)-1-(7H-pyrrolo[3,2-e]pyrimidin-4-yl)piperidin-4-yl]methanamine], the IC50 was found to be 35 nM.
`Cc1ccncc1-c1cccc(C2(CN)CCN(c3ncnc4[nH]ccc34)CC2)c1` [Example 74, [4-[3-(4-methylpyridin-3-yl)phenyl]-1-(7H-pyrrolo[3,2-e]pyrimidin-4-yl)piperidin-4-yl]methanamine]: the IC50 was 55 nM.
For the compound `NC1(C(=O)NCc2cc3ccccc3[nH]2)CCN(c2ncnc3[nH]ccc23)CC1` [Example 50, 4-Amino-1-(7H-pyrrolo[2,3-d]pyrimidin-4-yl)-piperidine-4-carboxylic acid (1H-indol-2-ylmethyl)-amide], the IC50 was 700 nM.
Take `NCC1(C(=O)Nc2nc3ccccc3s2)CCN(c2ncnc3[nH]ccc23)CC1` [Example 63, 4-(Aminomethyl)-N-(benzo[d]thiazol-2-yl)-1-(7H-pyrrolo[2,3-d]pyrimidin-4-yl)piperidine-4-carboxamide]: the IC50 was 170 nM.
To `CN(C)CC(=O)NCC1(c2cccc(-c3cnn(C)c3)c2)CCN(c2ncnc3[nH]cnc23)CC1` [Example 36, 2-(dimethylamino)-N-((4-(3-(1-methyl-1H-pyrazol-4-yl)phenyl)-1-(9H-purin-6-yl)piperidin-4-yl)methyl)acetamide] belongs 2800 nM; to `NC1(C(=O)NCc2csc(-c3ccccc3)n2)CCN(c2ncnc3[nH]ccc23)CC1` [Example 42, 4-Amino-N-[(2-phenyl-1,3-thiazol-4-yl)methyl]-1-(7H-pyrrolo[2,3-d]pyrimidin-4-yl)piperidine-4-carboxamide], 7100 nM.
`NC1(C(=O)NCc2cnc(-c3ccccc3)s2)CCN(c2ncnc3[nH]ccc23)CC1` [Example 46, 4-Amino-1-(7H-pyrrolo[2,3-d]pyrimidin-4-yl)-piperidine-4-carboxylic acid (2-phenyl-thiazol-5-ylmethyl)-amide]: the IC50 was 14000 nM.
To `Cc1ccc(CNC(=O)C2(CN)CCN(c3ncnc4[nH]ccc34)CC2)s1` [Example 23, 4-(Aminomethyl)-N-((5-methylthiophen-2-yl)methyl)-1-(7H-pyrrolo[2,3-d]pyrimidin-4-yl)piperidine-4-carboxamide] belongs 43 nM; to `NCC1(C(=O)NCc2cc3ccccc3[nH]2)CCN(c2ncnc3[nH]ccc23)CC1` [Example 26, N-((1H-Indol-2-yl)methyl)-4-(aminomethyl)-1-(7H-pyrrolo[2,3-d]pyrimidin-4-yl)piperidine-4-carboxamide], 23 nM; to `NCC1(C(=O)NCc2ccc(Cl)s2)CCN(c2ncnc3[nH]ccc23)CC1` [Example 22, 4-(Aminomethyl)-N-((5-chlorothiophen-2-yl)methyl)-1-(7H-pyrrolo[2,3-]pyrimidin-4-yl)piperidine-4-carboxamide], 16 nM.
To `Cc1cc(CNC(=O)C2(N)CCN(c3ncnc4[nH]ccc34)CC2)on1` [Example 49, 4-Amino-1-(7H-pyrrolo[2,3-d]pyrimidin-4-yl)-piperidine-4-carboxylic acid (3-methyl-isoxazol-5-ylmethyl)-amide] belongs 4200 nM; to `NCC1(C(=O)NCc2cc3ccccc3[nH]2)CCN(c2ncnc3[nH]nc(Br)c23)CC1` [Example 25, N-((1H-Indol-2-yl)methyl)-4-(aminomethyl)-1-(3-bromo-1H-pyrazolo[3,4-d]pyrimidin-4-yl)piperidine-4-carboxamide], 10 nM.
Regarding `NCC1(C(=O)Nc2ccc(C(F)(F)F)nc2)CCN(c2ncnc3[nH]ccc23)CC1` [Example 82, 4-(Aminomethyl)-1-(7H-pyrrolo[2,3-d]pyrimidin-4-yl)-N-(6-(trifluoromethyl)pyridin-3-yl)piperidine-4-carboxamide], the IC50 is 54 nM.
On to `Cn1cc(-c2cccc(C3(CN)CCN(c4ncnc5[nH]nc(Br)c45)CC3)c2)cn1` [Example 31, (1-(3-Bromo-1H-pyrazolo[3,4-d]pyrimidin-4-yl)-4-(3-(1-methyl-1H-pyrazol-4-yl)phenyl)piperidin-4-yl)methanamine], for which the IC50 was 22 nM.
To `NC1(C(=O)NCc2ccncc2)CCN(c2ncnc3[nH]ccc23)CC1` [Example 43, 4-Amino-N-(pyridin-4-ylmethyl)-1-(7H-pyrrolo[2,3-d]pyrimidin-4-yl)piperidine-4-carboxamide] belongs more than 19000 nM; to `Cn1cc(-c2cc(F)cc(C3(CN)CCN(c4ncnc5[nH]ccc45)CC3)c2)cn1` [Example 70, (4-(3-fluoro-5-(1-methyl-1H-pyrazol-4-yl)phenyl)-1-(7H-pyrrolo[2,3-d]pyrimidin-4-yl)piperidin-4-yl)methanamine], 59 nM; to `Cc1csc(CNC(=O)C2(N)CCN(c3ncnc4[nH]ccc34)CC2)n1` [Example 40, 4-Amino-N-[(4-methyl-1,3-thiazol-2-yl)methyl]-1-(7H-pyrrolo[2,3-d]pyrimidin-4-yl)piperidine-4-carboxamide], 3400 nM.
Take `Cn1cc(-c2cccc(C3(CNC(=O)CN)CCN(c4ncnc5[nH]cnc45)CC3)c2)cn1` [Example 35, 2-amino-N-((4-(3-(1-methyl-1H-pyrazol-4-yl)phenyl)-1-(9H-purin-6-yl)piperidin-4-yl)methyl)acetamide]: the IC50 amounted to 1300 nM.
On to `NCC1(C(=O)NCc2ccc(C(F)(F)F)nc2)CCN(c2ncnc3[nH]ccc23)CC1` [Example 27, 4-(Aminomethyl)-1-(7H-pyrrolo[2,3-d]pyrimidin-4-yl)-N-((6-(trifluoromethyl)pyridin-3-yl)methyl)piperidine-4-carboxamide], for which the IC50 turned out to be 110 nM.
